Test results as given in patent US20160228565A1, “POLYAMIDE BASED PEPTID[…]” (New York University, priority 2014, published 2016).

Tested on: HSV-1 (strain SC16)
Assay: Virus yield reduction assay (plaque assay, Vero cell monolayers)
Type: cell-based
Experimental: African green monkey kidney cells (Vero) (ATCC CCL-81) were grown in Dulbecco's modified Eagle's medium (DMEM) supplemented with 10% fetal calf serum. HSV-1 (strain SC16), carrying a lacZ gene driven by the CMV IE-1 promoter to express β-galactosidase, was propagated on Vero cells monolayers.
For all experiments, peptides, dendrimers, and peptidodendrimers were dissolved in DMEM without serum and used at concentrations of 0, 5.5, 55, 280, and 550 nM. All experiments were conducted in triplicate. The percentage of infectivity inhibition was calculated by setting the number of plaques obtained in positive controls where no antiviral compounds were added to the cell monolayers to 0% inhibition.
Confluent Vero cell monolayers (12-well plates) were washed with phosphate-buffered saline (PBS) and infected with HSV-1 at multiplicity of infection (MOI) of 1 plaque-forming unit (pfu)/cell for 1 hour at 37° C. The virus inocula were mixed with the peptide/dendrimer/conjugate(s) to be tested, as described in Example 3 above. […] Plaques were stained with X-gal (5-bromo-4-chloro-3-indolyl-([…]-galactopyranoside) and microscopically counted. The mean plaque counts for each drug concentration were expressed as a percentage of the mean plaque count for the control virus. The number of plaques was plotted as a function of drug concentration. See FIG. 6. […]

Sequence	antiviral activity relative to comparators (in words) (HSV-1 on Vero cells, FIGS. 6 and 18)	inhibitory concentration (range in words) (peptide alone vs peptide conjugated to dendrimer)
AAHLIDALYAEFLGGRVLTT (SEQ ID NO: 53) (HSV-1 envelope glycoprotein-derived peptide) [PgH, Residues 493-512 of envelope glycoprotein H]	less active than gB8	
FARLQFTYNHIQRHVRDMEGR (SEQ ID NO: 23) (HSV-1 envelope glycoprotein-derived peptide) [gB8, Residues 503-523 of envelope glycoprotein B]		micromolar
